From patent publication US11731946B2, “Broad spectrum antivirulence, anti-persistence compounds” (priority 2017, dated 2023)

Tests used:
Type in all cases: cell-based, P. aeruginosa
MvfR regulon [1] = assay: LC/MS quantification of HAQs and related molecules in bacterial culture supernatants; details: Pseudomonas aeruginosa
MvfR regulon [2] = assay: pqsA gene expression (pqsA-GFP reporter); details: Pseudomonas aeruginosa; for activity at 50 µM: read-out: pqsA @50 uM (%), compound at 50 uM; for IC50: read-out: IC50 pqsA (μM); for activity at 10 µM: read-out: pqsA @10 uM (%), compound at 10 uM
Description: Experiments were performed to identify compounds that inhibit the MvfR regulon without altering growth, ultimately attenuating P. aeruginosa infection. MvfR is a LysR-type transcriptional regulator that directs HAQs synthesis, including that of its ligands, 4-hydroxy-2-heptylquinoline (HHQ) and 3,4-dihydroxy-2-heptylquinoline (PQS).
MvfR promotes the production of HAQs by binding to and activating the pqs operon, which encodes enzymes for HAQ synthesis. Anthranilic acid (AA), derived from the phnAB, kynABU, and trpEG pathways, is the precursor for HAQs. pqsA encodes an anthranilate-coenzyme A ligase, which activates anthranilic acid and catalyzes the first committed step to HAQ production. The exact roles of PqsB and PqsC are unknown, though both show homology to acyl-carrier-proteins and both are required for HHQ and PQS production. […] The final gene of the operon, pqsE encodes for a putative hydrolase, and while the protein is not required for the synthesis of HAQs, it is necessary for pyocyanin production.
Nanomolar levels of most of these MvfR antagonists impeded the activity of MvfR and in consequence the MvfR virulence regulated ACRP functions, including: (1) the production of the important pro-acute P. aeruginosa virulence factor pyocyanin (see e.g., FIG. 9A) the efficacy of two of these potent inhibitors, D57 and D88, was also confirmed by testing many different MDR P. aeruginosa clinical isolates (see e.g., FIG. 11A-11B), providing further confidence of their inhibitory potency; (2) the expression of the genes that encode the enzymes catalyzing the synthesis of both pro-acute and pro-persistence MvfR-regulated virulence molecules, 4-hydroxyl-2-alkyl-quinolines (HAQs) and 2-aminoacetophenon (2-AA), as assessed by pqsAGFP reporter gene expression (see e.g., FIG. 9B) and HAQ production showing the levels of MvfR inducers/ligands HHQ and PQS as well as of the molecules critical for biofilm and Antibiotic tolerant/persiters cells formation HQNO and 2-AA (see e.g., FIG. 9C); (3) AT/P cell formation (see e.g., FIGS. 11A, 12A); (4) biofilm formation (see e.g., FIG. 12B); and (5) biofilm dispersal of preformed biofilm by potentiating antibiotic action (see e.g., FIG. 11B).

MvfR regulon [3] = assay: Quantification of pyocyanin (OD520nm of chloroform-extracted cultures); details: Pseudomonas aeruginosa; for activity at 50 µM: read-out: pyocyanin @50 uM (%), compound at 50 uM

SMILES	activity at 50 µM (MvfR regulon [1]; read-out: 2-AA @50 uM)	activity at 50 µM (MvfR regulon [1]; read-out: DHQ @50 uM)	activity at 50 µM (MvfR regulon [1]; read-out: HHQ @50 uM (%))	activity at 50 µM (MvfR regulon [1]; read-out: HQNO @50 uM (%))	activity at 50 µM (MvfR regulon [1]; read-out: PQS @50 uM (%))	activity at 50 µM (MvfR regulon [2])	activity at 50 µM (MvfR regulon [3])	activity at 50 µM (MvfR regulon [1]; read-out: AA @50 uM)	IC50 (MvfR regulon [1]; PA14, read-out: IC50 2-AA (μM))	IC50 (MvfR regulon [1]; PA14, read-out: IC50 DHQ (μM))	IC50 (MvfR regulon [1]; PA14, read-out: IC50 HHQ (μM))	IC50 (MvfR regulon [1]; PA14, read-out: IC50 PQS (μM))	IC50 (MvfR regulon [1]; read-out: IC50 AA (increase; μM))	IC50 (MvfR regulon [1]; read-out: IC50 HQNO (μM))	IC50 (MvfR regulon [2])	IC50 (MvfR regulon [3]; read-out: IC50 pyocyanin (μM))	activity at 10 µM (MvfR regulon [2])
Cc1ccccc1N(C)CC(=O)Nc1ccc(C#N)cc1 [Compound 12]	63.1%	51.5%	73.4%	91.2%	95.5%	95.7%	96%	–	–	–	–	–	–	–	–	–	–
N#Cc1ccc(NC(=O)CCNc2ccc(F)cc2)cc1 [Compound 46]	113%	99.5%	97%	95.8%	97.2%	79.6%	90.8%	101%	–	–	–	–	–	–	–	–	–
N#Cc1ccc(NC(=O)CCNc2ccc(F)cc2F)cc1 [Compound 47]	100%	99.3%	109%	101%	108%	74.3%	88.3%	129%	–	–	–	–	–	–	–	–	–
N#Cc1ccc(NC(=O)CC(=O)Nc2ccc(F)cc2)cc1 [Compound 48]	37.3%	68.3%	56.8%	58.5%	46.7%	9.7%	15.7%	187%	20.9 µM	33 µM	47.5 µM	36.5 µM	42.5 µM	33.7 µM	5.5 µM	7.1 µM	–
N#Cc1ccc(NC(=O)C(=O)Nc2ccc(F)cc2)cc1 [Compound 49]	103%	105%	97.9%	99.5%	110%	96.9%	106%	89.8%	–	–	–	–	–	–	–	–	–
Cc1cc(F)ccc1N1CCCC(NC(=O)c2ccc(C#N)cc2)C1 (stereo not drawn) [Compound 50]	101%	84.2%	98.5%	100%	96.1%	89.9%	108%	54.5%	–	–	–	–	–	–	–	–	–
Cc1cc(F)ccc1CCNC(=O)c1ccc(C#N)cc1 [Compound 51]	106%	95.5%	96.2%	102%	93.5%	91.4%	110%	68%	–	–	–	–	–	–	–	–	–
Cc1cc(F)ccc1NC(=O)Cc1ccc(C#N)cc1 [Compound 52]	113%	84.9%	102%	109%	99.8%	95.7%	115%	80.7%	–	–	–	–	–	–	–	–	–
N#Cc1ccc(NC(=O)CNC(=O)c2ccc(F)cc2)cc1 [Compound 58]	86.6%	89.8%	77.8%	85.9%	85.1%	70.7%	94%	32.3%	–	–	–	–	–	–	–	–	11%
CN(C(=O)CC(=O)Nc1ccc(C#N)cc1)c1ccc(F)cc1 [Compound 59]	97.3%	91%	75.9%	85.3%	86.6%	105%	110%	35.5%	–	–	–	–	–	–	–	–	110%
N#Cc1ccc(NC(=S)CC(=S)Nc2ccc(F)cc2)cc1 [Compound 60]	104%	82.9%	66.6%	77%	83.6%	80.7%	106%	28.2%	–	–	–	–	–	–	–	–	117%
N#Cc1ccc(NC(=O)CCC(=O)Nc2ccc(F)cc2)cc1 [Compound 61]	93.6%	93%	79%	85.5%	87.2%	77.8%	99%	42.4%	–	–	–	–	–	–	–	–	112%
Cc1cc(F)ccc1NC(=O)CC(=O)Nc1ccc(C#N)cc1 [Compound 62]	72.7%	84.7%	79.6%	86.5%	83.5%	43.6%	59.5%	58.7%	–	–	–	–	–	–	–	–	110%
CC(=O)c1ccc(NC(=O)CC(=O)Nc2ccc(C#N)cc2)cc1 [Compound 63]	89.9%	106%	120%	101%	119%	28%	65.6%	131%	–	–	–	–	–	–	57.1 µM	–	86.5%
N#Cc1ccc(NC(=O)CC(=O)Nc2ccc(C(=O)C(F)(F)F)cc2)cc1 [Compound 64]	140%	88.8%	107%	103%	104%	102%	84%	176%	–	–	–	–	–	–	–	–	107%
N#Cc1ccc(NC(=O)CC(=O)Nc2ccc(N)cc2)cc1 [Compound 67]	101%	103%	92.3%	91.7%	86.4%	89.7%	87.2%	115%	–	–	–	–	–	–	–	–	97.9%
CC(=O)Nc1ccc(NC(=O)CC(=O)Nc2ccc(C#N)cc2)cc1 [Compound 68]	92.8%	98.2%	74.7%	84.6%	87.6%	84.8%	103%	56%	–	–	–	–	–	–	–	–	94.2%
N#Cc1ccc(NC(=O)CC(=O)Nc2ccc(NC(=O)C(F)(F)F)cc2)cc1 [Compound 69]	117%	108%	103%	101%	101%	84.9%	93.8%	82.4%	–	–	–	–	–	–	–	–	94.2%
CS(=O)(=O)CNc1ccc(NC(=O)CC(=O)Nc2ccc(C#N)cc2)cc1 [Compound 70]	94.8%	80%	130%	98.3%	115%	131%	99.7%	117%	–	–	–	–	–	–	–	–	94.7%
